PMC5703966, “Systemic clearance and brain distribution of carbazole-based cyanine compounds as Alzheimer’s disease drug candidates” (Scientific Reports, 2017)

Experiment: Liver microsomes binding by RED device
Assay type: in vitro ADME
Description: Nonspecific binding in plasma (f u, plasma), microsomes (f u, mic) and hepatocyte (f u, hep) were determined using the method seen in supplemental information (Supplemental Methods). […]
Plasma, liver microsomes and hepatocyte binding by RED device […]
The stability of the compounds in plasma, liver microsomes and hepatocyte were studied to ensure […]
the reliability of the binding data. Hepatocyte was deactivated by leaving them on a bench for 2 days […]
and going through a freeze thaw cycle thereafter. […]
denatured. Testosterone was used as a control for CYP3A to ensure no turnover, so that the enzymes […]
were inactivated. All validation compounds were incubated at 37 °C over 4 h, and in triplicate. […]
For liver mi crosomes without cofactors and […]
mg/mL protein concentration, same as the assay condition) or deactivated hepatocytes (0.5 million […]
cells/mL, same as the assay condition) were added to the donor wells. 10 mM DMSO solutions of SLM […]
and SLOH were diluted to 50 µM (10% DMSO). 490 µL aliquots microsomes (0.51 mg/mL) and […]
hepatocytes (0.51 million cells/mL) were dispensed into a 1.5 mL tube, and then pre-warmed at 37 °C […]
in a shaking water bath. The assay was started by addition of 10 µL aliquots of compound solutions to […]
the corresponding biologica l matrices (final DMSO incubation concentration 0.2%, microsomes […]
concentration 0.50 mg/mL, hepatocytes concentration 0.5 million cells/mL). At 0, 15, 30, 60, 120, 180 […]
MS/MS. Natural logarithm of peak area ratios (compound peak area normalized by IS peak area) were plotted against time and half-life calculated. […]
placed into the sample chamber (indicated by the red ring) with 400 µL of PBS into the adjacent chamber.
The plate was sealed with a self-adhesive lid and incubated at 37 °C on an orbital shaker (1.5 g approx.) for 4 h. Aliquots (100 µL) were removed from each side of the insert, and analyzed after protein precipitation using 4 folds acetonitrile (ACN) containing berberine chloride as internal standard (IS) by LC-MS/MS (Analytical me thod seen below). The experimental procedure outlined in the Thermo Scientific RED device systems brochure was adopted in the present study . […]
For control experiments, NADPH, UDPGA and/or liver microsomes were omitted from these incubations. For the purposes of metabolite identification studies, the concentration of SLOH and […]

[1] = human liver microsomes 0.5 mg/mL
[2] = mouse liver microsomes 0.5 mg/mL

SMILES | f u,mic % [1] [%] | f u,mic % [2]
COCCOCCn1c2ccccc2c2cc(/C=C/c3cc[n+](C)c4ccccc34)ccc21.[I-] [SLM, (E)-4-(2-(9-(2-(2-methoxyethoxy)ethyl)-9H-carbazol-3-yl)-vinyl)-1-methyl-quinolin-1-iumiodide] | 7.30 ± 0.150 | 11.0 ± 1.06^$ %
COCCOCCn1c2ccccc2c2cc(/C=C/c3cc[n+](CCO)c4ccccc34)ccc21 [SLOH, (E)-1-(2-hydroxyethyl)-4-(2-(9-(2-(2-metho-xyethoxy)-ethyl)-9H-carbazol-3-yl)vinyl) quinolin-1-ium chloride] | 6.60 ± 1.60 | 17.0 ± 2.40^$ %
